Measured values published in US5194445A, “Ascorbic acid derivative” (Nippon Hypox Laboratories Incorporated, priority 1989, dated 1993).

Columns and labels:
[1] = tested on: Rat Liver Microsome; test: Activity to Inhibit Hyperoxidation of Lipid of Rat Liver Microsome (thiobarbituric acid method); type: biochemical
Description: Activity to Inhibit Hyperoxidation of Lipid of Rat Liver Microsome
A rat liver microsome was prepared according to a conventional method, and suspended in 1.15% KCl to obtain a microsome suspension.
The above microsome suspension in an amount equivalent to 2 mg of a protein was added to a tris-HCl buffer (pH 7.4) to which NADPH, ADP and FeCl3 had been added such that the final concentrations were 0.2 mM of NADPH, 1 mM of ADP and 10 μM of FeCl3.
A dimethylformamide (DMF) solution of each of test compounds in an amount of 10 μl or DMF in an amount of 10 μl was added such that the total amount of each of the mixtures was 1 ml, and then, the mixtures were kept at 37° C. for 20 minutes. In addition, the test compounds were added in such amounts that their final concentrations became 10^-5 M.
Thereafter, according to a thiobarbituric acid method, the above mixtures were measured for an amount of peroxide lipid formed. The inhibiting activities of the test compounds were compared with that of the group containing the solvent (DMF) alone, and the results were expressed as an inhibition ratio (%).

[2] = tested on: CCl4 Liver Dysfunction; test: Action on CCl4 Liver Dysfunction; type: in vivo, ICR male mice; details: oral
Description: Action on CCl4 Liver Dysfunction
Fourteen and seventeen ICR male mice were used as one group for each test. Each of the mice was hypodermically administered in its dorsal portion with 10 ml/kg of a solution of 10% CCl4 in olive oil to develop acute hepatitis, and the serum obtained by centrifugation of a blood sample taken from each mouse 48 hours after the administration was measured on GOT (glutamic-oxaloacetic transaminase) activity and GPT (glutamic-pyruvictransaminase) activity with an autoanalyzer (AU550, supplied by Olympus K.K.).
In addition, the test compound was suspended in physiological saline containing 1% olive oil and 1% Tween 80, and the resultant suspension was orally administered three times in total, immediately after the CCl4 administration and in the morning and evening on the day thereafter, such that the dose of each test compound was 100 mg/kg/one time administration.

[3] = tested on: Ischemic Brain Model Mouse; test: Action on Survival Rate of Ischemic Brain Model Mouse; type: in vivo, ICR male mice; details: oral, 100 mg/kg
Description: Action on Survival Rate of Ischemic Brain Model Mouse
Thirteen to fifty-six ICR male mice were used as one group for each of test compounds. Each of the mice was anesthetized by intraperitoneal administration of sodium pentobarbital, the bilateral carotid arteries were exposed, a thread was put around the arteries, and the skin was sutured with one end of the thread outside the body.
Three days after the suture of the skin, the bilateral carotid arteries were ligated for 3 minutes, and then reperfused to obtain ischemic brain model mice. And, a survival rate in each group 24 hours after the ligation-reperfusion of bilateral carotid arteries was determined.
In addition, each of the test compounds was suspended in a physiological saline containing 1% olive oil and 1% Tween 80, and the suspension was orally administered one hour before the ligation of the bilateral carotid arteries such that the amount of each test compound was 100 mg/kg.

[4] = tested on: Mouse; test: Acute Toxicity Test on Mouse; type: in vivo, Male 3-ICR mice; details: intravenous
Description: Acute Toxicity Test on Mouse
Male 3-ICR mice (10 weeks of age) were used. The compounds (Ia2), (Ia3) and (IA2) were intravenously administered to the mice in such a manner that the doses of each of the compounds were 30 mg/kg and 100 mg/kg. For one week after the administration, symptoms were observed.

[5] = tested on: Ventricular Arrhythmia During Coronary Occlusion-Reperfusion in Rat Heart; test: Activity to Inhibit Ventricular Arrhythmia During Coronary Occlusion-Reperfusion in Rat Heart; type: in vivo, male Wistar rats; details: for Total time of arrhythmia occurrence (second) (mean + S.E.): 10 minutes (600 seconds) observation
Description: Activity to Inhibit Ventricular Arrhythmia During Coronary Occlusion-Reperfusion in Rat Heart
Five to ten male Wistar rats (weight 230 to 460 g per rat) were used as one group for each of test compounds. Each of the rats was anesthetized with sodium pentobarbital, and electrocardiograms thereof were recorded with standard lead II.
The rats were subjected to thoracotomy under artificial respiration, and left coronary artery ramus anterior descendenses were ligated for 5 minutes and then perfused.
In addition, each of test compounds was suspended in a physiological saline containing 1% olive oil and 1% Tween 80, and the resultant suspensions were administered into femoral veins 2 minutes before the coronary occlusion, or orally administered 1 hour before the coronary occlusion, such that the amounts of said compounds were as predetermined.
When a left coronary artery ramus anterior descendence is occluded for 5 minutes and then reperfused, ventricular arrhythmia typified by ventricular tachycardia (VT) and ventricular fibrillation (VF) occurs.

[6] = Stability Test; type: physicochemical; details: room temperature, after 24 hours, tris-HCl buffer pH 9.0; read-out: residual content
Description: A tris-HCI buffer having pH of 9.0 was added to each of alcohol solutions of the compounds (Ia2), (Ia3), (IA2) and 2-O-dodecyl ascorbic acid, which was a position isomer of the compound (IA2), in such a manner that the amount of the buffer was 100 times as large as that of each alcohol solution.
The test compounds in the solutions which were allowed to stand at room temperature were quantitatively determined with time to measure their stability.

[7] = tested on: Ischemic Acute Renal Insufficiency; test: Action on Ischemic Acute Renal Insufficiency; type: in vivo, male Wistar rats; details: intravenous, 72 hours after reperfusion
Description: Action on Ischemic Acute Renal Insufficiency
Four male Wistar rats (weight: about 200 g per rat) were used as one group for each test. Each of the rats was anesthetized with sodium pentobarbital, the right kidney was extirpated, and immediately thereafter, 100 IU/kg of heparin was intravenously administered to its tail. Eight minutes after the administration, the left renal artery was ligated with a suture, and 60 minutes after the ligation, and the renal artery was reperfused by unligating the suture to develop ischemic acute renal insufficiency in each of the rats.
Immediately before the administration of sodium pentobarbital and 72 hours after the reperfusion, blood samples were taken from the tail artery of each rat, and the serums obtained by centrifugation of the sample bloods were respectively measured for a blood urea nitrogen (BUN) amount and a creatinine amount, indices for renal insufficiency, with an autoanalyzer (AU550, supplied by Olympus K.K.).
In addition, the test compound was suspended in a physiological saline containing 1% olive oil and 1% Tween 80, and the resultant suspension was intravenously administered to the tail of each rat 10 minutes before the administration of sodium pentobarbital or 10 minutes before the reperfusion such that the dose of the test compound was 10 mg/kg or 30 mg/kg.

[8] = 10^-5 M, pH 7.4, 37° C., 20 minutes, versus solvent (DMF) alone; 10 µM
[9] = 10^-5 M, pH 7.4, 37° C., 20 minutes, versus solvent (DMF) alone, 10 µM
[10] = 100 mg/kg/one time, three times, serum 48 hours after CCl4

CCCCCCC(=O)COC1=C(O)C(=O)O[C@@H]1[C@@H](O)CO [(a), reference compound]
Lipid hyperoxidation inhibition ratio (%) [1, 8]: 27%

CCCCCCCCCCCCCCCCC(=O)COC1=C(O)C(=O)O[C@@H]1[C@@H](O)CO [(b), reference compound]
Lipid hyperoxidation inhibition ratio (%) [1, 8]: 43%

CCCCCCCCOC1=C(O)C(=O)O[C@@H]1[C@@H](O)CO [(c), reference compound]
Lipid hyperoxidation inhibition ratio (%) [1, 8]: 40%

CCCCCCCCCCCCCCCCCCOC1=C(O)C(=O)O[C@@H]1[C@@H](O)CO [(d), reference compound]
Lipid hyperoxidation inhibition ratio (%) [1, 8]: 45%

CCCCCCCCCCOC(=O)COC1=C(O)C(=O)O[C@@H]1[C@@H](O)CO [Compound (IA5)]
Lipid hyperoxidation inhibition ratio (%) [1, 9]: 72%

CCCCCCCCCCCCCCCCCCOC(=O)COC1=C(O)C(=O)O[C@@H]1[C@@H](O)CO [Compound (IA6)]
Lipid hyperoxidation inhibition ratio (%) [1, 9]: 73%

CCCCCCCCCCCCC(=O)COC1=C(O)C(=O)O[C@@H]1[C@@H](O)CO [Compound (Ia3), 3-O-dodecylcarbonylmethyl ascorbic acid]
GOT activity value ([2]; 100 mg/kg): significantly reduced
GPT activity value ([2]; 100 mg/kg): significantly reduced
GOT activity (mean ± S.E) [2, 10]: 445.0 ± 69.0 Unit/1
GPT activity (mean ± S.E) [2, 10]: 1,406.4 ± 185.2 Unit/1
Lipid hyperoxidation inhibition ratio (%) [1, 9]: 85%
Lipid hyperoxidation inhibition ratio (%) ([1]; 10^-5 M, pH 7.4, 37° C., 20 minutes, versus solvent (DMF) alone, 10 µM, listed as Compound (IA3)): 81%
Survival rate (%) ([3]; one hour before ligation, 24 hours after ligation-reperfusion of bilateral carotid arteries): 80.0%
survival rate versus vehicle group ([3]; 24 hours after ligation-reperfusion): significantly higher
death during observation for one week ([4]; 30 mg/kg): no death was found
death during observation for one week ([4]; 100 mg/kg): no death was found
Total time of arrhythmia occurrence (second) (mean + S.E.) ([5]; i.v., 0.3 mg/kg, 2 minutes before coronary occlusion): 471.0 ± 73.6 s
Total time of arrhythmia occurrence (second) (mean + S.E.) ([5]; i.v., 1 mg/kg, 2 minutes before coronary occlusion): 216.1 ± 59.6 s
Total time of arrhythmia occurrence (second) (mean + S.E.) ([5]; i.v., 3 mg/kg, 2 minutes before coronary occlusion): 273.5 ± 93.8 s
Total time of arrhythmia occurrence (second) (mean + S.E.) ([5]; i.v., 10 mg/kg, 2 minutes before coronary occlusion): 203.8 ± 91.0 s
Total time of arrhythmia occurrence (second) (mean + S.E.) ([5]; i.v., 30 mg/kg, 2 minutes before coronary occlusion): 150.5 ± 79.8 s
inhibition of occurrence of arrhythmia ([5]; intravenously, not less than 1 mg/kg): same significant inhibition
inhibition of occurrence of arrhythmia ([5]; orally, not less than 10 mg/kg): same significant inhibition
Total time of arrhythmia occurrence (second) (mean + S.E.) ([5]; p.o., 10 mg/kg, 1 hour before coronary occlusion): 378.2 ± 61.4 s
Total time of arrhythmia occurrence (second) (mean + S.E.) ([5]; p.o., 30 mg/kg, 1 hour before coronary occlusion): 313.3 ± 81.7 s
Total time of arrhythmia occurrence (second) (mean + S.E.) ([5]; p.o., 100 mg/kg, 1 hour before coronary occlusion): 85.4 ± 28.9 s
Total time of arrhythmia occurrence (second) (mean + S.E.) ([5]; p.o., 300 mg/kg, 1 hour before coronary occlusion): 123.6 ± 43.7 s
remaining at 24 h [6]: ≥ 80%
BUN amount (mean ± S.E.) ([7]; 10 mg/kg): 33.8 ± 6.1 mg/dL
Creatinine amount (mean ± S.E.) ([7]; 10 mg/kg): 0.93 ± 0.05 mg/dL
BUN amount (mean ± S.E.) ([7]; 30 mg/kg): 34.1 ± 8.9 mg/dL
Creatinine amount (mean ± S.E.) ([7]; 30 mg/kg): 1.04 ± 0.12 mg/dL
BUN amount versus vehicle group ([7]; 10 or 30 mg/kg): significantly smaller
creatinine amount versus vehicle group ([7]; 10 or 30 mg/kg): significantly smaller

CCCCCCCCCCCCCCC(=O)COC1=C(O)C(=O)OC1C(O)CO (centres unmarked) [Compound (Ia4)]
Lipid hyperoxidation inhibition ratio (%) [1, 9]: 65%
